In one assay the target is T1, Human COX-2 (Homo sapiens, UniProt P35354).
T1 construct: A 2.0 kb fragment containing the coding region of either human or murine COX-1 or human or murine COX-2; made in house; host or cells: SF9 insect cells (baculovirus, pVL1393)
T1 sequence (P35354 18-604): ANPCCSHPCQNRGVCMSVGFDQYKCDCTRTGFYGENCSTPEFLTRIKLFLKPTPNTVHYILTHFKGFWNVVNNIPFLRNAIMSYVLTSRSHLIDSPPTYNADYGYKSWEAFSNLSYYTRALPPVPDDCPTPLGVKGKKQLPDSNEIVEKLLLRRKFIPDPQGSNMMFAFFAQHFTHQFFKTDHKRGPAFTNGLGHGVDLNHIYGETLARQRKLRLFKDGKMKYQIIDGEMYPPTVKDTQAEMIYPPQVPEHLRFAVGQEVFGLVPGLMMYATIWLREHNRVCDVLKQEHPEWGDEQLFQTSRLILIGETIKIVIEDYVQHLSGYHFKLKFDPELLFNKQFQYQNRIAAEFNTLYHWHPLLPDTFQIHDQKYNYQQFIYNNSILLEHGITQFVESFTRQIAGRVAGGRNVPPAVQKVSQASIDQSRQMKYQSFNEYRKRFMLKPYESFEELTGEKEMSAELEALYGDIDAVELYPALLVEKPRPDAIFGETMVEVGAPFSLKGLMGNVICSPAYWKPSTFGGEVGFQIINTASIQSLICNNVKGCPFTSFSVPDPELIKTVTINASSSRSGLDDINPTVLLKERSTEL
Kind of assay: Fast assay for COX-2 activity (PGE2 formed, ELISA). Conditions: recombinant enzyme in CHAPS-solubilized insect cell membranes; 10 min pre-incubation at 25° C.; 10 μM arachidonic acid. Format: biochemical. A general note: An ELISA detects its analyte on a solid surface through an enzyme-linked reagent.

The target in another assay is T2, Human COX-1 (Homo sapiens, UniProt P23219).
T2 construct: A 2.0 kb fragment containing the coding region of either human or murine COX-1 or human or murine COX-2; made in house; host or cells: SF9 insect cells (baculovirus, pVL1393)
Kind of assay: Fast assay for COX-1 activity (PGE2 formed, ELISA). Format: biochemical. The conditions noted are these: recombinant enzyme in CHAPS-solubilized insect cell membranes; 10 min pre-incubation at 25° C.; 10 μM arachidonic acid. As to the method:
Recombinant baculoviruses were isolated by transfecting 4 μg of baculovirus transfer vector DNA into SF9 insect cells (2×10^8) along with 200 ng of linearized baculovirus plasmid DNA by the calcium phosphate method. See M. D. Summers and G. E. Smith, A Manual of Methods for Baculovirus Vectors and Insect Cell Culture Procedures, Texas Agric. Exp. Station Bull. […] Recombinant viruses were purified by three rounds of plaque purification and high titer (10^7-10^8 pfu/mL) stocks of virus were prepared. For large scale production, SF9 insect cells were infected in 10 liter fermentors (0.5×10^6/mL) with the recombinant baculovirus stock such that the multiplicity of infection was 0.1. After 72 hours the cells were centrifuged and the cell pellet homogenized in Tris/Sucrose (50 mM: 25%, pH 8.0) containing 1% 3-[(3-cholamidopropyl)dimethylammonio]-1-propanesulfonate (CHAPS). The homogenate was centrifuged at 10,000×G for 30 minutes, and the resultant supernatant was stored at −80° C. before being assayed for COX activity.
COX activity was assayed as PGE2 formed/μg protein/time using an ELISA to detect the prostaglandin released. CHAPS-solubilized insect cell membranes containing the appropriate COX enzyme were incubated in a potassium phosphate buffer (50 mM, pH 8.0) containing epinephrine, phenol, and heme with the addition of arachidonic acid (10 μM). Compounds were pre-incubated with the enzyme for 10-20 minutes prior to the addition of arachidonic acid. Any reaction between the arachidonic acid and the enzyme was stopped after ten minutes at 37° C. room temperature by transferring 40 μl of reaction mix into 160 μl ELISA buffer and 25 μM indomethacin. The PGE2 formed was measured by standard ELISA technology (Cayman Chemical).
COX activity was assayed as PGE2 formed/μg protein/time using an ELISA to detect the prostaglandin released. […] Compounds were pre-incubated with the enzyme for 10 minutes at 25° C. prior to the addition of arachidonic acid. Any reaction between the arachidonic acid and the enzyme was stopped after two minutes at 37° C./room temperature by transferring 40 μl of reaction mix into 160 μl ELISA buffer and 25 μM indomethacin. The PGE2 formed was measured by standard ELISA technology (Cayman Chemical).

Take `COc1ccc(-n2nc(C(F)(F)F)cc2-c2cc(F)c(S(C)(=O)=O)cc2F)cc1` [Example 8, 5-[2,5-difluoro-4-(methylsulfonyl)phenyl]-1-(4-methoxyphenyl)-3-(trifluoromethyl)-1H-pyrazole]: the IC50 – broadly, the concentration that inhibits the measured activity by half – at Human COX-2 was 250 nM; at Human COX-1, 14800 nM. Take `CS(=O)(=O)c1c(F)cc(-c2cc(C(F)(F)F)nn2-c2ccc(F)cc2)cc1F` [Example 1, 5-[3,5-difluoro-4-(methylsulfonyl)phenyl]-1-(4-fluorophenyl)-3-(trifluoromethyl)-1H-pyrazole]: the IC50 at Human COX-2 is 3440 nM; at Human COX-1, over 100000 nM. The corresponding values for `CS(=O)(=O)c1c(F)cc(-c2cc(C(F)(F)F)nn2-c2cccc(C(F)(F)F)c2)cc1F` [Example 3, 5-[3,5-difluoro-4-(methylsulfonyl)phenyl]-3-(trifluoromethyl)-1-[3-(trifluoromethyl)phenyl]-1H-pyrazole] are 300 nM and over 100000 nM. Consider `CS(=O)(=O)c1c(F)cc(-c2cc(C(F)(F)F)nn2-c2ccc(OC(F)(F)F)cc2)cc1F` [Example 4, 5-[3,5-difluoro-4-(methylsulfonyl)phenyl]-1-[4-(trifluoromethoxy)phenyl]-3-(trifluoromethyl)-1H-pyrazole], for which the IC50 on Human COX-2 was 100 nM; at Human COX-1, over 100000 nM. The corresponding values for `Cc1onc(-c2ccccc2)c1-c1cc(F)c(S(N)(=O)=O)c(F)c1` [Example 15, 2,6-difluoro-4-(5-methyl-3-phenylisoxazol-4-yl)benzene-sulfonamide] are 120 nM and over 100000 nM. On to `Cc1ccc(-n2nc(C(F)(F)F)cc2-c2cc(F)c(S(C)(=O)=O)c(F)c2)cc1Cl` [Example 6, 1-(3-chloro-4-methylphenyl)-5-[3,5-difluoro-4-(methylsulfonyl)phenyl]-3-(trifluoromethyl)-1H-pyrazole], for which the results for the IC50 on Human COX-2 and on Human COX-1 were 90 nM and over 100000 nM, respectively.

In the case of `Cc1onc(-c2ccccc2)c1-c1cc(F)c(S(C)(=O)=O)c(F)c1` [Example 14, 4-[3,5-difluoro-4-(methylsulfonyl)phenyl]-5-methyl-3-phenylisoxazole], the IC50 on Human COX-1 was over 100000 nM.

Take `CS(=O)(=O)c1cc(F)c(-c2cc(C(F)(F)F)nn2-c2ccc(Cl)cc2)cc1F` [Example 7, 1-(4-chlorophenyl)-5-[2,5-difluoro-4-(methylsulfonyl)-phenyl]-3-(trifluoromethyl)-1H-pyrazole]: the IC50 at Human COX-2 stood at 90 nM; on Human COX-1, 56700 nM.

On to `Cc1ccc(-n2nc(C(F)F)cc2-c2cc(F)c(S(C)(=O)=O)c(F)c2)cc1Cl` [Example 2, 1-(3-chloro-4-methylphenyl)-3-(difluoromethyl)-5-[3,5-difluoro-4-(methylsulfonyl)phenyl]-1H-pyrazole], for which the IC50 is 550 nM at Human COX-2 and over 100000 nM at Human COX-1. Consider `CS(=O)(=O)c1c(F)cc(-c2cc(C(F)F)nn2C2CCCCC2)cc1F` [Example 5, 1-cyclohexyl-3-(difluoromethyl)-5-[3,5-difluoro-4-(methylsulfonyl)phenyl]-1H-pyrazole], for which the IC50 at Human COX-1 is over 100000 nM.
